In data set [1] the test system is NF-κB p65. Kind of data set: Phospho-NF-κB p65 (Ser536) in RAW264.7 cells (immunoblot). The data set is classed as cell-based, mouse. To be noted: LPS 4 h. The protocol: (§1) Furthermore, after pretreating RAW264.7 cells with different concentrations of 5-MTP for 30 min, cells were stimulated with. LPS for 4 h. NF-κB p65, phospho-NF-κB p65 (p-p65) (Ser536) or β-actin was determined by immunoblotting with specific antibodies. Also, peritoneal macrophages were treated with LPS with or without 5-MTP (50 μM) for the indicated time. Phospho-p65 in the lysates was analyzed by an ELISA kit. The results are shown in FIG. 10D, in which the error bars denote mean ±SD (n=3). According to FIGS. 10C-10D, 5-MTP decreased LPS-induced phosphorylation of NF-κB p65 not only in RAW264.7 cells (FIG. 10C) but also in peritoneal macrophages (FIG. 10D).

A further data set has as its system p38 MAPK. Kind of data set: LPS-induced p38 MAPK phosphorylation in RAW264.7 cells (immunoblot). The class given is cell-based, mouse. To be noted: LPS 4 h. As to the method: Cellular protein were resolved by 5% to 20% SDS-PAGE and transferred to nitrocellulose membranes and blotted with specific antibodies as previously described (Lee, G. L., et al.).
After pretreating RAW264.7 cells with different concentrations of 5-MTP for 30 min, cells were stimulated with LPS for 4 h. Cell lysates were immunoblotted with antibodies for p38, phospho-p38 (p-p38), ERK½, phospho-ERK½ (p-ERK½) or β-actin. […] Activation of p38 MAPK in macrophages is required for TLR-induced NF-κB activation, which is one of the key factors affecting TLR-induced cytokine production. Thus, we evaluated the effect of 5-MTP on LPS-induced. NF-κB activation.
Background: In western blotting, separated proteins are transferred to a membrane and probed.

Another data set relates to vascular calcification. Kind of data set: High fat diet-induced arterial calcification in ApoE-deficient mice (von Kossa). The data set is classed as in vivo. Particulars: 23.4 mg/kg 3 times a week i.p., 20 weeks. The protocol:
ApoE-deficient mice were fed with on a Western high fat diet containing 1.25% cholesterol and 21% fat (Research Diets) starting at 6 weeks of age. The mice were simultaneously treated with vehicle (PBS) or 5-MTP (23.4 mg/kg body weight, 3 times a week) by intraperitoneal injection. After 20 weeks, the aortic trees were dissected and lesions examined in the aortic arch and its branches. Vascular calcifications in the aortic root were evaluated by von Kossa staining.
Vascular smooth muscle cell (VSMC) calcification is the major phenomenon to induce atherosclerotic vascular calcification in cardiovascular disease (CVD). We next investigated the effect of 5-MTP derivatives on VSMC calcification.

For data set [2], the system named is NF-κB p65. Kind of data set: Phospho-p65 in peritoneal macrophage lysates (ELISA kit). The class given is cell-based, mouse. Particulars: peritoneal macrophages, 5-MTP 50 μM. The protocol: as §1
(In general: In an ELISA, binding on a coated surface is turned into a signal by an enzyme label.)

Data set [3] has as its system LPS-induced cytokine production. The data set is classed as cell-based, mouse. The protocol:
Mouse RAW264.7 macrophages were from the American Type Culture Collection and cultured in DMEM containing 10% FBS. Cells were typically pre-incubated with or without 5-MTP (Sigma-Aldrich) for 30 min before LPS treatment, unless specified otherwise. The duration of LPS (100 ng/ml) treatment varied depending on the experiment.
Cytokine levels in the culture supernatants and serum were determined in microtiter plates (96-well) by a specific sandwich ELISA (Biosource) as previously described (Wu, J. Y. & Kuo, C. C. Pivotal role of ADP-ribosylation factor 6 in Toll-like receptor 9-mediated immune signaling. J Biol Chem 287, 4323-4334 (2012)) (Lee, G. L., et al. TLR 2 induces vascular smooth muscle cell migration through cAMP response element-binding protein-mediated interleukin-6 production. Arterioscler Thromb Vasc Biol 32, 2751-2760 (2012); hereinafter, Lee, G. L., et al.).

The nature of data set [4]: Serum 5-MTP level in mice after 5-MTP administration. The class given is in vivo. To be noted: 5-MTP 23.4 mg/kg. The protocol:
To ensure that 5-MTP administration increases serum 5-MTP, we analyzed 5-MTP level at 24 h and 72 h after 5-MTP infusion. Serum 5-MTP concentrations in mice treated with saline or LPS with or without 5-MTP (23.4 mg/kg) at 24 h and 72 h. The error bars denote mean±SD (n=3).

The next data set has as its system neutrophil infiltration. Kind of data set: Neutrophil infiltration in lung tissues (Ly6G staining). The class given is in vivo, mice. The protocol:
Prior to immunohistochemical detection of COX-2, iNOS, Ly6g, or cleaved caspase-3 in lung sections, sections were deparaffinized with xylene, progressively rehydrated through graded alcohols. Antigen sites were retrieved by heating the sections on slides in pH 8 EDTA antigen. retrieval (Trilogy; Cell Marque Corporation) in electric pressure cooker for 15 min. […] All antibodies described hereafter were diluted in blocking buffer. Sections were incubated at room temperature for 2 h with primary antibody and then washed in PBST. The sections were incubated with primary antibody amplifier quanta (Thermo) for 10 minutes. After rinsing with PBST, the sections were incubated with HRP Polymer Quanto (Thermo) for 10 minutes and washed three times with PBST. COX-2, iNOS, Ly6g and cleaved caspase-3 were visualized by the addition of DAB Quanto Chromogen: Substrate for 3 minutes. Tissues were also counterstained with hematoxylin.
Thirty min after saline or 5-MTP administration, mice were injected intraperitoneally with LPS at 4 h, 12 h, 16 h and 24 h. Paraffin-embedded lung tissue specimens were subjected to immunohistochemical Ly6G staining for determination of neutrophil infiltration in lung tissues. The results are shown in FIG. 8A, in which scale bars represent 100 μm.

Another data set has as its system TNF-α. Kind of data set: LPS-induced TNF-α production in RAW264.7 cells. The class given is cell-based, mouse. To be noted: data not shown.
Data set [5] can be described thus: Spleen weight/body weight ratio in LPS-challenged mice. The class given is in vivo. As to the method: Furthermore, spleen weight/body weight (SW/BW) ratio was also assessed (n=6 mice/group).
For another data set, the system named is lung tissues. Kind of data set: Lung histology (H&E) in LPS-treated mice. The data set is classed as in vivo. To be noted: LPS 60 mg/kg. The protocol: For histological studies, the lungs were perfused with saline, and immersed in formalin for 24 h. Tissue blocks were placed in formalin, dehydrated in a graded series of ethanol, embedded in paraffin, cut into 3 μm-thick serial sections, and stained with haematoxylin and eosin for detecting inflammatory cells, alveolar congestion and alveolar septal wall thickness and interstitial edema.
In addition, paraffin-embedded sections were prepared from lungs of mice injected with 60 mg/kg LPS with or without saline or 5-MTP for the indicated time. Lung tissues were stained with hematoxylin and eosin and examined under light microscopy. The results are shown in FIG. 5C, in which scale bars represent 100 μm.

A further data set has as its system RAW264.7 cells. Kind of data set: Cell viability by MTT assay. The data set is classed as cell-based, mouse. To be noted: 24 h. As to the method: Furthermore, RAW264.7 cells were treated with different concentrations of 5-MTP or 5-MTPE for 24 h. Cell viability was determined by MTT assay. In another experiment, after pretreating RAW264.7 cells with different concentrations of 5-MTP or 5-MTPE for 30 min, cells were stimulated with LPS for 24 h. IL-6 level in culture supernatants was measured by ELISA.
In general terms: Formazan colour is commonly taken as a measure of viable cells.

Molecules are shown by their SMILES.

Regarding `COc1ccc2[nH]cc(C[C@H](N)C(=O)O)c2c1` [5-MTP, 5-methoxytryptophan], the “LPS-induced phosphorylation of NF-κB p65” value in the data set with NF-κB p65 [1] and with NF-κB p65 [2] was “decreased” each time. Moreover, the “phosphorylation of p38 MAPK” value in the data set with p38 MAPK is “dose-dependently blocked”. Further, the “high fat diet-induced vascular calcification” value in the data set on vascular calcification is given as “prevented”. The “Suppressive activity in LPS-induced cytokine production” value in data set [3] is listed as “+”. Moreover, the “serum 5-MTP level at 24 h after administration” value in data set [4] is recorded as “several-fold over the basal level”. For the same compound, in data set [4], the “serum 5-MTP level at 72 h” value is “returned to basal level”. Further, the “neutrophil infiltration in lung tissues” value in the data set with neutrophil infiltration (5-MTP at 100 mg/kg) is on record as “reduced the infiltration almost to the basal level”; in the data set with neutrophil infiltration (LPS, 4 h, 12 h, 16 h and 24 h), “dose-dependently reduced”. Moreover, the TNF-α production entry in the data set with TNF-α was “inhibited”. For the same compound, in data set [5], the “spleen weight/body weight (SW/BW) ratio, spleen edema” value is given as “ameliorated spleen edema in a dose-dependent manner”. Also, the “LPS-induced lung pathological changes (leukocyte infiltration, septal wall thickening, edema, congestion)” value in the data set on lung tissues is on record as “significantly alleviated”.
Turning to `COC(=O)C(N)Cc1c[nH]c2ccc(OC)cc12` (stereo not shown) [5-MTPE, ester-5-MTP], the “cell viability (MTT)” value in the data set on RAW264.7 cells is on record as “not cell viability”.

For the origin of these results see US10577322B2, “5-methoxytryptophan and its derivatives and uses thereof” (National Health Research Institutes, priority 2015, dated 2020).
